# Source: patent US6166290A, “Glutathione-S-conjugate transport in plants” (The Trustees of the University of Pennsylvania, priority 1997, dated 2000)
# Read-outs that look alike come from different tables or passages of the source.
# B1: AtMRP2 (Arabidopsis thaliana) (protein)
# chain: MGFEFIEWYCKPVPNGVWTKQVANAFGAYTPCATDSFVLGISQLVLLVLCLYRIWLALKDHKVERFCLRSRLYNYFLALLAAYATAEPLFRLIMGISVLDFDGPGLPPFEAFGLGVKAFAWGAVMVMILMETKIYIRELRWYVRFAVIYALVGDMVLLNLVLSVKEYYSSYVLYLYTSEVGAQVLFGILLFMHLPNLDTYPGYMPVRSETVDDYEYEEISDGQQICPEKHANIFDKIFFSWMNPLMTLGSKRPLTEKDVWYLDTWDQTETLFTSFQHSWDKELQKPQPWLLRALNNSLGGRFWWGGFWKIGNDCSQFVGPLLLNQLLKSMQEDAPAWMGYIYAFSIFVGVVFGVLCEAQYFQNVMRVGYRLRSALIAAVFRKSLRLTNEGRRKFQTGKITNLMTTDAESLQQICQSLHTMWSAPFRIIIALILLYQQLGVASLIGALLLVLMFPLQTVIISKMQKLTKEGLQRTDKRIGLMNEVLAAMDTVKCYAWENSFQSKVQTVRDDELSWFRKSQLLGALNMFILNSIPVLVTIVSFGVFTLLGGDLTPARAFTSLSLFAVLRFPLFMLPNIITQVVNANVSLKRLEEVLATEERILLPNPPIEPGEPAISIRNGYFSWDSKGDRPTLSNINLDVPLGSLVAVVGSTGEGKTSLISAILGELPATSDAIVTLRGSVAYVPQVSWIFNATVRDNILFGSPFDREKYERAIDVTSLKHDLELLPGGDLTEIGERGVNISGGQKQRVSMARAVYSNSDVYIFDDPLSALDAHVGQQVFEKCIKRELGQKTRVLVTNQLHFLSQVDRIVLVHEGTVKEEGTYEELSSNGPLFQRLMENAGKVEEYSEENGEAEADQTAEQPVANGNTNGLQMDGSDDKKSKEGNKKGGKSVLIKQEERETGVVSWRVLKRYQDALGGAWVVMMLLLCYVLTEVFRVTSSTWLSEWTDAGTPKSHGPLFYNLIYALLSFGQVLVTLTNSYWLIMSSLYAAKKLHDNMLHSILRAPMSFFHTNPLGRIINRFAKDLGDIDRTVAVFVNMFMGQVSQLLSTVVLIGIVSTLSLWAIMPLLVLFYGAYLYYQNTAREVKRMDSISRSPVYAQFGEALNGLSTIRAYKAYDRMADINGRSMDNNIRFTLVNMGANRWLGIRLETLGGLMIWLTASFAVMQNGRAENQQAFASTMGLLLSYALNITSLLTGVLRLASLAENSLNAVERVGNYIEIPPEAPPVIENNRPPPGWPSSGSIKFEDVVLRYRPQLPPVLHGVSFFIHPTDKVGIVGRTGAGKSSLLNALFRIVEVEKGRILIDDCDVGKFGLMDLRKVLGIIPQSPVLFSGTVRFNLDPFGEHNDADLWESLERAHLKDTIRRNPLGLDAEVSEAGENFSVGQRQLLSLSRALLRRSKILVLDEATAAVDVRTDALIQKTIREEFKSCTMLIIAHRLNTIIDCDKILVLDSGRVQEFSSPENLLSNEGSSFSKMVQSTGAANAEYLRSLVLDNKRAKDDSHHLQGQRKWLASSRWAAAAQFALAASLTSSHNDLQSLEIEDDSSILKRTNDAVVTLRSVLEGKHDKEIAESLEEHNISREGWLSSLYRMVEGLAVMSRLARNRMQQPDYNFEGNTFDWDNVEM
# Assays:
# [1] = target: T1, YCF1 (vacuolar membrane vesicles purified from DTY165 cells) (Saccharomyces cerevisiae, UniProt P39109); test: [3H]DNP-GS uptake by vacuolar membrane vesicles purified from DTY165 cells; type: biochemical; conditions: 5 μM gramicidin D, read-out: I50 for MgATP-dependent, uncoupler-insensitive DNP-GS uptake
# T1 construct: endogenous in cells; host or cells: S. cerevisiae DTY165 (wild type YCF1), vacuolar membrane vesicles
# Method in brief: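 ATP-dependent [3H]DNP-GS (66.2 μM) transport measured by filtration and scintillation counting of Ficoll-purified yeast vacuolar vesicles (DTY165 wild type; DTY167 ycf1Δ), 1–60 min at 25 °C in sorbitol/Tris-Mes pH 8.0 with 3 mM ATP, 3 mM MgSO4 and gramicidin-D. Nonenergized uptake without ATP/Mg2+.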
# [2] = tested on: endogenous GS-X pump of plant vacuolar membranes; conditions: vanadate; read-out: I50 for inhibition of the endogenous vacuolar GS-X pump of plant cells; cited from earlier work
# [3] = tested on: vacuolar GS-X pump (vacuolar membrane vesicles, V. radiata hypocotyls); test: GS-conjugate uptake by vacuolar membrane vesicles from etiolated hypocotyls of V. radiata; type: biochemical, Vigna radiata
# Procedure: Values shown are means ±SE (n=3).
# Vacuolar membrane vesicles were purified from etiolated hypocotyls of V. radiata cv.
# Unless otherwise indicated, [^3 H]medicarpin or [3H]medicarpin-GS uptake was measured at 25° C. in 200 μl reaction volumes containing 3 mM ATP, 3 mM MgSO4, 10 mM creatine phosphate, 16 U/ml creatine kinase, 50 mM KCl, 0.1% (w/v) BSA, 400 mM sorbitol and 25 mM Tris-Mes buffer, pH 8.0. Uptake was initiated by the addition of 12 μl membrane vesicles (30-40 μg protein) and brief mixing of the samples on a vortex mixer. Uptake was terminated by the addition of 1 ml ice-cold wash medium (400 mM sorbitol, 3 mM Tris-Mes, pH 8.0) and vacuum filtration of the suspension through prewetted HA cellulose nitrate filters (pore diameter 0.45 μm). The filters were rinsed twice with a 1 ml ice-cold wash medium, air-dried and radioactivity was determined by liquid scintillation counting.
# [4] = tested on: vacuolar membrane vesicles purified from DTY167 cells (ycf1Δ mutant); type: biochemical, Saccharomyces cerevisiae; conditions: 5 μM gramicidin D
# Procedure: For the routine preparation of vacuolar membrane vesicles, 15 ml of stationary phase cultures of DTY165 or DTY167 were diluted into 1-liter volumes of fresh YPD medium, grown for 24 hours at 30° C. to an OD600 nm of approximately 0.8 and collected by centrifugation. After washing with distilled water, the cells were converted to spheroplasts with Zymolyase 20T (ICN) (Kim et al., 1994, supra) and intact vacuoles were isolated by flotation centrifugation of spheroplast lysates on Ficoll 400 step gradients as described by Roberts et al. (1991, Methods. Enzymol. 194:644-661). Both the spheroplast lysis buffer and Ficoll gradients contained 2 mg/ml bovine serum albumin, 1 μg/ml aprotinin, 1 μg/ml leupeptin, 1 μg/ml pepstatin, and 1 mM PMSF to minimize proteolysis. The resulting vacuole fraction was vesiculated in 5 mM MgCl2, 25 mM KCl, 10 mM Tris-Mes (pH 6.9) containing 2 mg/ml bovine serum albumin, 1 μg/ml aprotinin, 1 μg/ml leupeptin, 1 μg/ml pepstatin, and 1 mM PMSF, pelleted by centrifugation at 37,000× g for 25 min, and resuspended in suspension medium (1.1 M glycerol, 2 mM dithiothreitol, 1 mM Tris-EGTA, 2 mg/ml bovine serum albumin, 1 μg/ml aprotinin, 1 μg/ml leupeptin, 1 μg/ml pepstatin, 1 mM PMSF, 5 mM Tris-Mes, pH 7.6) (Kim et al., 1995, J. Biol. Chem. 270:2630-2635).
# Unless otherwise indicated, [^3 H]DNP-GS uptake was measured at 25° C. in 200 μl reaction volumes containing 3 mM ATP, 3 mM MgSO4, 5 μM gramicidin-D, 10 mM creatine phosphate, 16 units/ml creatine kinase, 50 mM KC 1, 1 mg/ml bovine serum albumin, 400 mM sorbitol, 25 mM Tris-Mes (pH 8.0), and 66.2 μM [^3 H]DNP-GS (8.7 mCi/mmol) (Li et al., 1995, supra). […] Uptake was initiated by the addition of vacuolar membrane vesicles (10-15 μg of membrane protein), brief mixing of the samples on a vortex mixer and uptake was then allowed to proceed for 1-60 minutes. Uptake was terminated by the addition of 1 ml of ice-cold wash medium (400 mM sorbitol, 3 mM Tris-Mes, pH 8.0) and vacuum filtration of the suspension through prewetted Millipore HA cellulose nitrate membrane filters (pore diameter, 0.45 μm). The filters were rinsed twice with 1 ml of ice-cold wash medium and air-dried, and radioactivity was determined by liquid scintillation counting in BCS mixture (Amersham Corp.). Nonenergized [^3 H]DNP-GS uptake and extravesicular solution trapped on the filters were enumerated by the same procedure except that ATP and Mg^2 +were omitted from the uptake medium.
# [5] = tested on: membrane vesicles purified from pYES3-transformed DTY168 cells; test: DNP-GS uptake by membrane vesicles from pYES3 (empty vector)-transformed DTY168 cells; type: biochemical, Saccharomyces cerevisiae
# Procedure: S. cerevisiae strain DTY168 (MATα his6, leu2-3, -112, ura3-52 ycf1::hisG) was transformed with pYES3-AtMRP1 or empty vector lacking the AtMRP1 insert (pYES3) by the LiOAc/PEG method (Giest et al., 1991, Yeast 7:253-263) and selected for uracil prototrophy by plating on AHC medium containing tryptophan (Kim et al., 1994, supra).
# For the preparation of membrane vesicles, 15 ml volumes of stationary phase cultures of the transformants were diluted into 1 L of fresh AHC medium and grown to an OD600 nm of about 1.2. Membrane vesicles were purified as described herein and in Kim et al. (1995, supra).
# DNP-GS uptake was measured as described herein in 200 μl reaction volumes containing 3 mM ATP, 3 mM MgSO4, 5 μM gramicidin-D, 10 mM creatine phosphate, 16 units/ml creatine kinase, 50 mM KCl, 1 mg/ml BSA, 400 mM sorbitol, 25 mM Tris-Mes (pH 8.0) and the indicated concentrations of [^3 H]DNP-GS (17.4 mCi/mmol).
# [6] = tested on: vacuolar GS-X pump (vacuolar membrane vesicles, Z. mays roots); test: GS-conjugate uptake by vacuolar membrane vesicles from roots of Z. mays; type: biochemical, Zea mays
# [7] = substrate: N[C@@H](CCC(=O)N[C@@H](CSSC[C@H](NC(=O)CC[C@H](N)C(=O)O)C(=O)NCC(=O)O)C(=O)NCC(=O)O)C(=O)O; test: cells, lysate or membranes; conditions: other: MgATP-dependent, uncoupler-insensitive; pH 8.0
# [8] = read-out: I50 for uptake of IAA-GS
# T1 sequence (P39109 whole entry): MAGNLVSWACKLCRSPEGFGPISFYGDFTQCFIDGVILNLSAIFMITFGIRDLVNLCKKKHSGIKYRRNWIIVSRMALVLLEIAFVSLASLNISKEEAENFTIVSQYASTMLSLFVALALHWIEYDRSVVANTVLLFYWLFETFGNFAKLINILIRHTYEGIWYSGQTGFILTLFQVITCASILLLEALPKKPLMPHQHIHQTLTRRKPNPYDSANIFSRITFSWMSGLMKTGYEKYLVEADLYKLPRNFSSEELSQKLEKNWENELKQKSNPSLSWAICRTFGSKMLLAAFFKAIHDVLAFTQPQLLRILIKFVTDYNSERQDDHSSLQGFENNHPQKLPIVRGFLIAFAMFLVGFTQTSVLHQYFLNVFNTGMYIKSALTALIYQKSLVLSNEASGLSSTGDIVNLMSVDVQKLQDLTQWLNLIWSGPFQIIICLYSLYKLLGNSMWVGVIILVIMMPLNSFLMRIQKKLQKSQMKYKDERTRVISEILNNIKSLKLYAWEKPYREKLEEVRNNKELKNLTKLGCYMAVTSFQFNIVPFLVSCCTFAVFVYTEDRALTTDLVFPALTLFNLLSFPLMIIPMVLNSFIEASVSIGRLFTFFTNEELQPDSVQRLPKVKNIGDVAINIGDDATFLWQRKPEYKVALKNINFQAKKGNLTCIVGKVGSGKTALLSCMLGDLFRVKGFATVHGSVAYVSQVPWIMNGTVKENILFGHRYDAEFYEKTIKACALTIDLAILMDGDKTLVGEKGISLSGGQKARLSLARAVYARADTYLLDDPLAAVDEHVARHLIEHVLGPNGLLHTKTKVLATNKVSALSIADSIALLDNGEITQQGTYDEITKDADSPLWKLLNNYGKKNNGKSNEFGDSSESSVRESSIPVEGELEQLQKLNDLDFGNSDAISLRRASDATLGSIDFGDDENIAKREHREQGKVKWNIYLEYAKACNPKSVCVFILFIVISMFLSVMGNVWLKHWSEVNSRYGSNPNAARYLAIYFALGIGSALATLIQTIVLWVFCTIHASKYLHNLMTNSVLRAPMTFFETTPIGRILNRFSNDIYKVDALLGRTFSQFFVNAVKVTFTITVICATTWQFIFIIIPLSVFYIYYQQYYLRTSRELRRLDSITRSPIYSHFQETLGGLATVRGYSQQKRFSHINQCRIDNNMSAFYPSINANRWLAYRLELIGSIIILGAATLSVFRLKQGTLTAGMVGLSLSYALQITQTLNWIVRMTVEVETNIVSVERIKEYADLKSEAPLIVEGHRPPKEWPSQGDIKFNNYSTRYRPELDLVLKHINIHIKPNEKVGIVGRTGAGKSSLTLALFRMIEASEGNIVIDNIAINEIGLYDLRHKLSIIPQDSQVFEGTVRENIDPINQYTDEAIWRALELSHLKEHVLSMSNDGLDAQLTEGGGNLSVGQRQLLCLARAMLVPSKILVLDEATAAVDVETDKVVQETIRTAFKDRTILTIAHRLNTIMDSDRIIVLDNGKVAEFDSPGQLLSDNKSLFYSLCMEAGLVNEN
Molecule,IC50 ([1]; listed as vanadate) [µM],IC50 [1] [µM],IC50 [2] [µM],"IC50 ([3]; V. radiata, read-out: I50 for uptake of C3G-GS) [µM]","IC50 [3, 8] [µM]","inhibition of MgATP-dependent [3H]medicarpin-GS uptake ([3]; vanadate 10 μM, DNP-GS 100 μM, gramicidin D)","I50 for MgATP-dependent, uncoupler-insensitive DNP-GS uptake [4]",sensitivity of DNP-GS uptake to vanadate [5],IC50 ([6]; read-out: I50 for uptake of ABA-GS) [µM],IC50 ([6]; read-out: I50 for uptake of C3G-GS) [µM],"IC50 [6, 8] [µM]",Km [7] [µM]
[O]=[V]([O-])([O-])[O-] [Vanadate],179,179,7.5 ± 3.9,7.9,6.5,more than 85%,Insensitive,insensitive,> 150,8.2,5.5,
B1,,,,,,,,,,,,73.0 ± 15.1
